Earlier results as cited in PMC7248880, “Preclinical Incorporation Dosimetry of [^18F]FACH—A Novel ^18F-Labeled MCT1/MCT4 Lactate Transporter Inhibitor for Imaging Cancer Metabolism with PET” (Molecules, 2020).

Assays:
[1] = piglet biokinetic data; cited from earlier work
MCT1 = tested on: MCT1; design: method as in PMID 31017677, PMID 31017677; details: cited from earlier work
MCT4 = tested on: MCT4; design: method as in PMID 31017677, PMID 31017677; details: cited from earlier work

Row | SMILES | ED, Preclinical [1] [μSv/MBq] | IC50 (MCT1) [nM] | IC50 (MCT4) [nM]
1 | [18F]c1ccc(C2CC3CCCC2N3)cn1 (single isomer, unassigned; (+)) [(+)-[^18F]flubatine] | 14.3 |  | 
2 | [18F]CC[C@H]1OC2(CCN(Cc3ccccc3)CC2)c2ccccc21 [(R)-(+)-[^18F]fluspidine] | 14.0 |  | 
3 | FCC[C@@H]1OC2(CCN(Cc3ccccc3)CC2)c2ccccc21 [(S)-(−)-[^18F]fluspidine] | 12.9 |  | 
4 | [18F]c1ccc([C@@H]2C[C@H]3CCC[C@@H]2N3)cn1 [(−)-[^18F]flubatine] | 14.7 |  | 
5 | CCCN(CCCF)c1ccc(/C=C(\C#N)C(=O)O)c(OC)c1 [FACH] |  | 11 | 6.5
6 | O=S1(=O)c2ccc([18F])cc2-c2ccc(N3CCN4CCC3CC4)cc21 [[^18F]DBT10] | 13.7 |  | 
